Assay results from US8871753B2, “Macrocyclic compounds and their use as kinase inhibitors” (Incyte Corporation, priority 2008, dated 2014).
Counter-ions that a name gives are not always drawn. Like-named read-outs stand apart in the source and are kept apart here.

Key:
Assay type in all cases: biochemical
[1] = target: T1, human JAK2 (a.a. 828-1132) (Homo sapiens, UniProt O60674); test: In vitro JAK kinase assay (HTRF, phosphorylation of a biotinylated peptide), JAK2
T1 construct: JAK2 (a.a. 828-1132); His tag (N); made in house; host or cells: insect cells (baculovirus)
How it was run: (§1)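 Kinase reactions ran at room temperature for 1 h with ATP matched per isoform (JAK1 90 μM, JAK2 30 μM, JAK3 3 μM). After an EDTA stop, the phosphorylated biotin-peptide was read by HTRF using Eu-Py20 and SA-APC after 40 min binding.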

[2] = target: T2, human JAK3 (a.a. 781-1124) (Homo sapiens, UniProt P52333); test: In vitro JAK kinase assay (HTRF, phosphorylation of a biotinylated peptide), JAK3
T2 construct: JAK3 (a.a. 781-1124); His tag (N); made in house; host or cells: insect cells (baculovirus)
How it was run: as §1

[3] = target: TYK2 (Homo sapiens, UniProt P29597); test: TYK2 kinase inhibition (Table A1)
[4] = target: T3, Recombinant Human Anaplastic Lymphoma Kinase (Homo sapiens, UniProt Q9UM73); test: ALK HTRF kinase assay
T3 construct: purchased Invitrogen, Carlsbad, Calif
How it was run: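 Compounds were incubated with recombinant human ALK and a biotin-tagged peptide substrate. Product was captured with streptavidin-APC and probed with a europium anti-phosphotyrosine antibody, and plates were read for time-resolved fluorescence. Dose-response data were fitted to derive IC50.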

[5] = target: T4, human JAK1 (a.a. 837-1142) (Homo sapiens, UniProt P23458); test: In vitro JAK kinase assay (HTRF, phosphorylation of a biotinylated peptide), JAK1; settings: read-out: JAK1 IC50
T4 construct: human JAK1 (a.a. 837-1142); His tag (N); made in house; host or cells: insect cells (baculovirus)
How it was run: as §1

[6] = method AA1 (30 μM ATP) or AA2 (1000 μM ATP), not stated per value
[7] = method AA1 (3 μM ATP) or AA2 (1000 μM ATP), not stated per value
[8] = method AA1 (90 μM ATP) or AA2 (1000 μM ATP), not stated per value
[9] = compound at a concentration of 500 nM or 1 mM (not specified), cells shown as percentage

TYK2, sequence (P29597 whole entry): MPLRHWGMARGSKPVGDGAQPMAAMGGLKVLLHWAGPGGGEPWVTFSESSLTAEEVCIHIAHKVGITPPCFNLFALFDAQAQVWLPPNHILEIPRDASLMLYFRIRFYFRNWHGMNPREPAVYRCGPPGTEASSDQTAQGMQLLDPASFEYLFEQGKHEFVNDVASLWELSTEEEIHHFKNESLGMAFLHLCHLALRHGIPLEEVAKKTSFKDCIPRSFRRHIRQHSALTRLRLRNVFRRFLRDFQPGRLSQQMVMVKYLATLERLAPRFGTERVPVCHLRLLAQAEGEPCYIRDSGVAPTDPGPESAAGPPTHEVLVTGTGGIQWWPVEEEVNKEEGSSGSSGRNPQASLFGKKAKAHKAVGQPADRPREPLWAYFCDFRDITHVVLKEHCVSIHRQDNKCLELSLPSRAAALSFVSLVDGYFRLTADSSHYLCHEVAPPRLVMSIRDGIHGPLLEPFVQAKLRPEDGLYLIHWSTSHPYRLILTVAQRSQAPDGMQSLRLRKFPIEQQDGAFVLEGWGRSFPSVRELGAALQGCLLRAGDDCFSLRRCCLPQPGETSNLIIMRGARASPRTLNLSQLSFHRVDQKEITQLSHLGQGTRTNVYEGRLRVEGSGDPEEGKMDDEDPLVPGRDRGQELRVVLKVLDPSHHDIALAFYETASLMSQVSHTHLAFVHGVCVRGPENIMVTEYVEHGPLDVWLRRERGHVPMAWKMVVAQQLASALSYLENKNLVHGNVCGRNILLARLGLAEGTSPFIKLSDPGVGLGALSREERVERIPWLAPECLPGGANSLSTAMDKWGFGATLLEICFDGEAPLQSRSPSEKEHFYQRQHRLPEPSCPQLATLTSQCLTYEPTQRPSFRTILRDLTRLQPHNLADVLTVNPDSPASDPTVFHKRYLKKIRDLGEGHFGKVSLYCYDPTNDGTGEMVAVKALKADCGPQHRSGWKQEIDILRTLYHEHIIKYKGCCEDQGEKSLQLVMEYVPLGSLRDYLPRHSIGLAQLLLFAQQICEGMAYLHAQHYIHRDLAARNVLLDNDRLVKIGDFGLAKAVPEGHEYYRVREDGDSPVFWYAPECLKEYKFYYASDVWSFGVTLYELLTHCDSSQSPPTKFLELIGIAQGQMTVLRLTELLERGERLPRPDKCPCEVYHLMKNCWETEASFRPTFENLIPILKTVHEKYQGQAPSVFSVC
T3 sequence (Q9UM73 19-1620): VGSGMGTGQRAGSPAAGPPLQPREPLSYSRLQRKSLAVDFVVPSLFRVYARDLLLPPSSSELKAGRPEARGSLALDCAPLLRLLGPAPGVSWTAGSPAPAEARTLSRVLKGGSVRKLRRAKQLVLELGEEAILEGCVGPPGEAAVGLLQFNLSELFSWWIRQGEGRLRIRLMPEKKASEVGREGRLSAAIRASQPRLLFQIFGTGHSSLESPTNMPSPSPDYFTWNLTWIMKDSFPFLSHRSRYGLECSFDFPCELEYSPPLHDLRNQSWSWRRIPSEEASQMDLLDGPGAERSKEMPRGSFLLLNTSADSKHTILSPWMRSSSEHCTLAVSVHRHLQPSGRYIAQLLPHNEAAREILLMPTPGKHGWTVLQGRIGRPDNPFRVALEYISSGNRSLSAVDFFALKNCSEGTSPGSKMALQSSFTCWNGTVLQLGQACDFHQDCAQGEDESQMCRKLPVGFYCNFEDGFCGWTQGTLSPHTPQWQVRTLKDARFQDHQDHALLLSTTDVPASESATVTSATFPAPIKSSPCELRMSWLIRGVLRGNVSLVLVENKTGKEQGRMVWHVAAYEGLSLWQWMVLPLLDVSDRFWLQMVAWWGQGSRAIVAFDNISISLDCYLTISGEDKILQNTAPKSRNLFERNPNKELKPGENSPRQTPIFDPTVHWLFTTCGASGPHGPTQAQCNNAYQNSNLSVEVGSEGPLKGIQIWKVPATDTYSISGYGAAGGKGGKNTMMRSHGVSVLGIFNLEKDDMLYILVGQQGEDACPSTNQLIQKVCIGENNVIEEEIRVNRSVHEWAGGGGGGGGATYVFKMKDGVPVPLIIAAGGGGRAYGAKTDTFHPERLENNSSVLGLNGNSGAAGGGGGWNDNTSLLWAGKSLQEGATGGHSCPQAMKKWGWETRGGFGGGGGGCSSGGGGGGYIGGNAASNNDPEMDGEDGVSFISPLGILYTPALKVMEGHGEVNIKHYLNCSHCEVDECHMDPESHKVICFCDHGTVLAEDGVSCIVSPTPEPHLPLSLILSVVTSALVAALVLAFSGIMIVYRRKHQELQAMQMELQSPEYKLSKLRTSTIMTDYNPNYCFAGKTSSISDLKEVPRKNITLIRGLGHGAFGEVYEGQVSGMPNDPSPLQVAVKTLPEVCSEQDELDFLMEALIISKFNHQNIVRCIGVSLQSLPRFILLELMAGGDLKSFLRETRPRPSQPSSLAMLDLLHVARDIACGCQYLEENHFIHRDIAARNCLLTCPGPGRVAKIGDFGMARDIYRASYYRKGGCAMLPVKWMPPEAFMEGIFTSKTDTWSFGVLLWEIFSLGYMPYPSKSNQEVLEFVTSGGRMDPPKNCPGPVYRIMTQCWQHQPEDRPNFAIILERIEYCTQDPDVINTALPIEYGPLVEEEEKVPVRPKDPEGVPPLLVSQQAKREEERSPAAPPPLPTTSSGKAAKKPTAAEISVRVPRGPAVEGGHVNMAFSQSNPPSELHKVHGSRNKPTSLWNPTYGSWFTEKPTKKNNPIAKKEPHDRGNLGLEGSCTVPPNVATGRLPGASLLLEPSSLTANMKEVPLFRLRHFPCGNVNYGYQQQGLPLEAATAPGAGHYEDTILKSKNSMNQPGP
T2 sequence (P52333 781-1124): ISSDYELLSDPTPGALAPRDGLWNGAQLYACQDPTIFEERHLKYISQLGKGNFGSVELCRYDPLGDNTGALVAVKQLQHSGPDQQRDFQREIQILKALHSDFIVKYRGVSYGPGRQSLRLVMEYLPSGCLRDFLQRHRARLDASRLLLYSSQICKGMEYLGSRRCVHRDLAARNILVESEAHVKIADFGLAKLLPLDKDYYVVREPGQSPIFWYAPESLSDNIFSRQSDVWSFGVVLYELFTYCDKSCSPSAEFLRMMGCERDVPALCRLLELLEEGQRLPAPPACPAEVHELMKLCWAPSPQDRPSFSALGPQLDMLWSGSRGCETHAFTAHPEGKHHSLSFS
T4 sequence (P23458 849-1154): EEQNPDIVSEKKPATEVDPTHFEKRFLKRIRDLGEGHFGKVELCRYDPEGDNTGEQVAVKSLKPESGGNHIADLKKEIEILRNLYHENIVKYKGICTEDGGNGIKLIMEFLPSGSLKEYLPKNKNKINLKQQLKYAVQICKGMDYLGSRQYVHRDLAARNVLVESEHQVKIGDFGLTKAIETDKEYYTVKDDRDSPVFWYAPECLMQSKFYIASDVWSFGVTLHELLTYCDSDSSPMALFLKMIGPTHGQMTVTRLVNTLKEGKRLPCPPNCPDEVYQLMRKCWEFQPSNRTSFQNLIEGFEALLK
T1 sequence (O60674 828-1132): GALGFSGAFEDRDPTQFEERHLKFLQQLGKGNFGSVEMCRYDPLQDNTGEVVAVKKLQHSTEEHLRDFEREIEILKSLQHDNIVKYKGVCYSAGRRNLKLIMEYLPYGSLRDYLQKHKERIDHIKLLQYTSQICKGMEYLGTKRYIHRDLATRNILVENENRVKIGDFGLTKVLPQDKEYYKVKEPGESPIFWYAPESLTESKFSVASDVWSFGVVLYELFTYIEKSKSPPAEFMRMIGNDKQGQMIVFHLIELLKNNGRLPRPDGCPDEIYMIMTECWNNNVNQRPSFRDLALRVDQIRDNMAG

SMILES: Clc1cnc2nc1Nc1cccc(c1)CCCc1cccc(c1)N2 [Example A4, 6-Chloro-2,4,8,23-tetraazatetracyclo[15.3.1.1(3,7).1(9,13)]tricosa-1(21),3(23),4,6,9(22),10,12,17,19-nonaene]
- IC50 [1, 6]: 54 nM
- IC50 [2, 7]: 45 nM
- IC50 [3]: > 100 nM
- IC50 ([4]; 90 μM ATP): 925 nM
- IC50 [5, 8]: 87 nM

SMILES: Cn1ccc(C(=O)N2CC[C@H](NC(=O)Nc3ccc4cc3CCc3cccc(c3)Nc3ncc(Cl)c(n3)N4)C2)n1 [Example B232, N-[6-Chloro-2,4,8,22-tetraazatetracyclo[14.3.1.1(3,7).1(9,13)]docosa-1(20),3(22),4,6,9(21),10,12,16,18-nonaen-12-yl]-N′-{(3S)-1-[(1-methyl-1H-pyrazol-3-yl)carbonyl]pyrrolidin-3-yl}urea bis(trifluoroacetate)]
- IC50 ([1]; Table B1): 11 nM
- IC50 ([2]; Table B1): 72 nM
- IC50 ([3]; Table B1): 26 nM
- ALK % of inhibition at a concentration of 500 nM or 1 mM [4, 9]: 10%
- IC50 ([5]; Table B1): 4 nM

SMILES: Clc1cnc2nc1Nc1cccc(c1)CNCc1cccc(c1)N2 [Example D73, 6-Chloro-2,4,8,15,23-pentaazatetracyclo[15.3.1.1(3,7).1(9,13)]tricosa-1(21),3(23),4,6,9(22),10,12,17,19-nonaene bis(trifluoroacetate)]
- IC50 ([1]; Table D1): 106 nM
- IC50 ([2]; Table D1): 67 nM
- IC50 ([3]; Table D1): 191 nM
- IC50 ([4]; Table D1, 90 μM ATP): 1330 nM
- IC50 ([5]; Table D1): 83 nM

SMILES: Cc1cccc(S(=O)(=O)Nc2ccc3cc2CCc2cccc(c2)Nc2ncc(Cl)c(n2)N3)c1 [Example B148, N-[6-Chloro-2,4,8,22-tetraazatetracyclo[14.3.1.1(3,7).1(9,13)]docosa-1(20), 3(22),4,6,9(21),10,12,16,18-nonaen-12-yl]-3-methylbenzenesulfonamide trifluoroacetate]
- IC50 ([1]; Table B1): 0.13 nM
- IC50 ([2]; Table B1): 1.1 nM
- IC50 ([3]; Table B1): 0.53 nM
- IC50 ([4]; Table B1, cells without percent sign): 150 nM
- IC50 ([5]; Table B1): 0.49 nM

SMILES: O=C(Nc1ccc2cc1CCc1cccc(c1)Nc1ncc(Cl)c(n1)N2)Nc1c(Cl)cccc1Cl [Example B113, N-[6-Chloro-2,4,8,22-tetraazatetracyclo[14.3.1.1(3,7).1(9,13)]docosa-1(20), 3(22),4,6,9(21),10,12,16,18-nonaen-12-yl]-N′-(2,6-dichlorophenyl)urea trifluoroacetate]
- IC50 ([1]; Table B1): 7.4 nM
- IC50 ([2]; Table B1): 48 nM
- IC50 ([3]; Table B1): 17 nM
- ALK % of inhibition at a concentration of 500 nM or 1 mM [4, 9]: 9.5%
- IC50 ([5]; Table B1): 4.7 nM

SMILES: O=C1Nc2cccc(c2)Nc2nc(ncc2Cl)Nc2cccc1c2 [Example C2, 6-Chloro-2,4,8,14,22-pentaazatetracyclo[14.3.1.1(3,7).1(9,13)]docosa-1(20),3(22),4,6,9(21),10,12,16,18-nonaen-15-one hydrochloride]
- IC50 [1]: > 1000 nM
- IC50 [2]: > 1000 nM
- IC50 [3]: > 1000 nM
- IC50 [4]: > 1000 nM
- IC50 [5]: > 1000 nM

SMILES: Cc1occc1NC(=O)N1CCC(CN(C)Cc2ccc3cc2CCc2cncc(c2)Nc2ncc(Cl)c(n2)N3)CC1 [Example B349, 4-{[{[6-Chloro-2,4,8,18,22-pentaazatetracyclo[14.3.1.1(3,7).1(9,13)]docosa-1(20),3(22),4,6,9(21),10,12,16,18-nonaen-12-yl]methyl}(methyl)amino]methyl}-N-(2-methyl-3-furyl)piperidine-1-carboxamide tris(trifluoroacetate)]
- IC50 ([1]; Table B1): 150 nM
- IC50 ([2]; Table B1): 371 nM
- IC50 ([3]; Table B1): 300 nM
- ALK % of inhibition at a concentration of 500 nM or 1 mM ([4]; percentage inhibition of the example compound at a concentration of 500 nM or 1 mM (not specified which)): 61%
- IC50 ([5]; Table B1): 11 nM

SMILES: O=C(Nc1cc2cc(c1)OCCSc1cccc(c1)Nc1nc(ncc1Cl)N2)c1ccco1 [Example D62, N-[6-Chloro-17-oxa-14-thia-2,4,8,24-tetraazatetracyclo[16.3.1.1(3,7).1(9,13)]tetracosa-1(22),3(24),4,6,9(23),10,12,18,20-nonaen-20-yl]-2-furamide trifluoroacetate]
- IC50 ([1]; Table D1): 2.1 nM
- IC50 ([2]; Table D1): 18 nM
- IC50 ([3]; Table D1): 6.1 nM
- IC50 ([4]; Table D1, 90 μM ATP): 380 nM
- IC50 ([5]; Table D1): 7.3 nM

SMILES: CC(Oc1ccc2cc1CCc1cccc(c1)Nc1ncc(Cl)c(n1)N2)C(=O)Nc1ccccc1 (stereo not drawn) [Example A16, 2-{[6-Chloro-2,4,8,22-tetraazatetracyclo[14.3.1.1(3,7).1(9,13)]docosa-1(20),3(22),4,6,9(21),10,12,16,18-nonaen-12-yl]oxy}-N-phenylpropanamide trifluoroacetate]
- IC50 [1, 6]: 10 nM
- IC50 [2, 7]: 60 nM
- IC50 [3]: 32 nM
- ALK % of inhibition at a concentration of 500 nM or 1 mM ([4]; compound at 500 nM or 1 mM, 90 μM ATP): 21%
- IC50 [5, 8]: 12 nM
